Results taken from ChEMBL document CHEMBL1143937, “1-deoxyrubralactone, a novel specific inhibitor of families X and Y of eukaryotic DNA polymerases from a fungal strain derived from sea algae” (Bioorg Med Chem, 2008).
The source made the active and inactive calls. The calls are words filed in the database; no cut-off is given here.

Tests used:
[1] = system: Brassica oleracea; assay: Inhibition of cauliflower DNA polymerase alpha at 100 uM
[2] = molecular target: T1, DNA polymerase iota (Homo sapiens) (UniProt Q9UNA4); assay: Inhibition of human DNA polymerase iota at 100 uM
T1 sequence (whole entry): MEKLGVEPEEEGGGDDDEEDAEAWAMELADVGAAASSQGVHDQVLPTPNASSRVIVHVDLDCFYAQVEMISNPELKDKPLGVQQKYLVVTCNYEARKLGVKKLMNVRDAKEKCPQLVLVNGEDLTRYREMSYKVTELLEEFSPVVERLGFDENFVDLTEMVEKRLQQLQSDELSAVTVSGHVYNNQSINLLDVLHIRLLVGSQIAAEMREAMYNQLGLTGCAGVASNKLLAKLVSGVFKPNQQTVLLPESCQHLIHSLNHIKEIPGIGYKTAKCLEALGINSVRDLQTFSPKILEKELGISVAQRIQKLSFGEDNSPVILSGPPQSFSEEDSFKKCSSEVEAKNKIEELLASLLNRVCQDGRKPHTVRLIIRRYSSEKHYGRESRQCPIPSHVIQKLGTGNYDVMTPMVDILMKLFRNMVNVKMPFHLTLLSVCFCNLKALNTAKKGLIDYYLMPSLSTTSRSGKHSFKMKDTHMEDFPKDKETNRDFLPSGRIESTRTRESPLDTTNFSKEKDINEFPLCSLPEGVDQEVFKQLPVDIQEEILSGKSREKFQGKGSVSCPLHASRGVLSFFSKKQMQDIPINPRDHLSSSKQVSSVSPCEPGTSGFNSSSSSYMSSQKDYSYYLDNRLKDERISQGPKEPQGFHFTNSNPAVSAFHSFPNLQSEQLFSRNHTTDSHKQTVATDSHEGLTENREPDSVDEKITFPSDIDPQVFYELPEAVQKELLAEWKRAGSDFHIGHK

[3] = molecular target: Human immunodeficiency virus type 1 reverse transcriptase (Human immunodeficiency virus 1) (UniProt Q72547); assay: Inhibition of human immunodeficiency virus 1 reverse transcriptase at 100 uM
[4] = molecular target: T2, DNA polymerase delta catalytic subunit (Homo sapiens) (UniProt P28340); assay: Inhibition of human DNA polymerase delta at 100 uM
T2 sequence (whole entry): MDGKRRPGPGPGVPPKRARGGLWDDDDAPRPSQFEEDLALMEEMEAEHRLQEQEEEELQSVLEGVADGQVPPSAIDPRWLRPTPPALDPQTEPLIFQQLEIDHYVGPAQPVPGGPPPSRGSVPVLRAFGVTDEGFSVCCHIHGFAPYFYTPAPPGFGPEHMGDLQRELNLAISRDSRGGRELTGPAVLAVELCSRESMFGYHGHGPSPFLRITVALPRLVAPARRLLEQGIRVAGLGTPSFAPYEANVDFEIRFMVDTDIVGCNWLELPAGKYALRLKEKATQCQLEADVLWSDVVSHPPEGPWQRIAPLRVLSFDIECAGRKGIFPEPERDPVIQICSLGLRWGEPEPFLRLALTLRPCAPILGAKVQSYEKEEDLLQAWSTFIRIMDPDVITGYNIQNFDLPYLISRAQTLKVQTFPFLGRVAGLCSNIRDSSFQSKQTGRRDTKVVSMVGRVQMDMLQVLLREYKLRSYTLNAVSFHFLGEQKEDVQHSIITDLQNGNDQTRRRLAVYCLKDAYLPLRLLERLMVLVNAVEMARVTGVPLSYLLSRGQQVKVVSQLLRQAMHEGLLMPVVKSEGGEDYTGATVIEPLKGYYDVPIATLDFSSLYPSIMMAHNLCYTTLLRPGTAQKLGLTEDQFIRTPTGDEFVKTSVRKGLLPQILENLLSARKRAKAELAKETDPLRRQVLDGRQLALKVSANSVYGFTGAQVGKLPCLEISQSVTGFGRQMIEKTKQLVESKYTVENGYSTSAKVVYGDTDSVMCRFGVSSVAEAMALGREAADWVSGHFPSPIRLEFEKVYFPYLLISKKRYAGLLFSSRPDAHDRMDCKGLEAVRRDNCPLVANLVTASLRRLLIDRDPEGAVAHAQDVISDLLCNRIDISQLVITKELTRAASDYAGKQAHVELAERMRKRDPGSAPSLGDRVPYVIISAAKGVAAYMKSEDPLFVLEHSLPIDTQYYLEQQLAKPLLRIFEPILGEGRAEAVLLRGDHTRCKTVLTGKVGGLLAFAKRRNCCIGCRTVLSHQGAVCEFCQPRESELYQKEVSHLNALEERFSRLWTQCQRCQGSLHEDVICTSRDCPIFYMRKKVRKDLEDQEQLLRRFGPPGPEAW

[5] = system: Thermus aquaticus; assay: Inhibition of Taq DNA polymerase at 100 uM
[6] = system: Tequatrovirus T4; assay: Inhibition of T4 DNA polymerase at 100 uM
[7] = system: Brassica oleracea; assay: Inhibition of cauliflower DNA polymerase beta at 100 uM
[8] = system: Escherichia phage T7; assay: Inhibition of T7 RNA polymerase […] at 100 uM
[9] = molecular target: T3, DNA polymerase lambda (Homo sapiens) (UniProt Q9UGP5); assay: Inhibition of human DNA polymerase lambda at 100 uM
T3 sequence (whole entry): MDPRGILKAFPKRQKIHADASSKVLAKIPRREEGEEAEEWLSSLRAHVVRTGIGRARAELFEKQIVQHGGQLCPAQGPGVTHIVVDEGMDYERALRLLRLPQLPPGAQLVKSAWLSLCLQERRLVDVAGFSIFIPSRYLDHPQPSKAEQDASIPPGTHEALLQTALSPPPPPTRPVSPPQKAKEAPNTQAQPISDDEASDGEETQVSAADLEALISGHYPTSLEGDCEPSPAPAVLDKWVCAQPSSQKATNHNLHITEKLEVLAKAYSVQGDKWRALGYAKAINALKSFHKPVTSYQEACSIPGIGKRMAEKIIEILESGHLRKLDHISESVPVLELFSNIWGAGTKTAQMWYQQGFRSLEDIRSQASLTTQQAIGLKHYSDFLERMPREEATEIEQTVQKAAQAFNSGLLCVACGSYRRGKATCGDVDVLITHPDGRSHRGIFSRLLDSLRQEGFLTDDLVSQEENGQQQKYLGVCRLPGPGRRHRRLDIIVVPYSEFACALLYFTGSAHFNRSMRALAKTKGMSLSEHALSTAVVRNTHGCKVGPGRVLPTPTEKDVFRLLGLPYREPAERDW

[10] = molecular target: Polynucleotide kinase (Enterobacteria phage T4) (UniProt P06855); assay: Inhibition of T4 polynucleotide kinase at 100 uM; conditions: Tequatrovirus T4
Polynucleotide kinase (Enterobacteria phage T4), sequence (P06855 whole entry): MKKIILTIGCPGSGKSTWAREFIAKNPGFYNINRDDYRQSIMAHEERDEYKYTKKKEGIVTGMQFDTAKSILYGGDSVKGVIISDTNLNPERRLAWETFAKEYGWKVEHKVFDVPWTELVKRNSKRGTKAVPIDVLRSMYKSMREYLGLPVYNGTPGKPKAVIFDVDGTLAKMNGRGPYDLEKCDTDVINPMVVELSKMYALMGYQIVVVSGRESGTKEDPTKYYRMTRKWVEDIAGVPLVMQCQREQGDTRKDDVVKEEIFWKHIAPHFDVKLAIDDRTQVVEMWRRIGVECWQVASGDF

[11] = organism: Homo sapiens; assay: Inhibition of human DNA polymerase epsilon at 100 uM
[12] = organism: Bos taurus; assay: Inhibition of calf primase DNA polymerase alpha at 100 uM
[13] = system: Escherichia coli; assay: Inhibition of Escherichia coli DNA polymerase 1 at 100 uM
[14] = molecular target: Deoxyribonuclease-1 (Bos taurus) (UniProt P00639); assay: Inhibition of bovine deoxyribonuclease 1 at 100 uM
Deoxyribonuclease-1 (Bos taurus), sequence (P00639 whole entry): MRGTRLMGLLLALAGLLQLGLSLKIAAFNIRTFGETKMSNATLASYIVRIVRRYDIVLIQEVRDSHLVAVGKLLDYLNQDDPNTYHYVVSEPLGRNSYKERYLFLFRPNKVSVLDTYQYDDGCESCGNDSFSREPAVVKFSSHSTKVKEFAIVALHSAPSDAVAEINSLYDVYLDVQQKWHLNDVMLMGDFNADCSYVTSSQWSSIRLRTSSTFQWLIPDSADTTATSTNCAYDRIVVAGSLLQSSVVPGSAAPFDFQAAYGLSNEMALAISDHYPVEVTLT

[15] = molecular target: T4, DNA polymerase eta (Homo sapiens) (UniProt Q9Y253); assay: Inhibition of human DNA polymerase eta at 100 uM
T4 sequence (whole entry): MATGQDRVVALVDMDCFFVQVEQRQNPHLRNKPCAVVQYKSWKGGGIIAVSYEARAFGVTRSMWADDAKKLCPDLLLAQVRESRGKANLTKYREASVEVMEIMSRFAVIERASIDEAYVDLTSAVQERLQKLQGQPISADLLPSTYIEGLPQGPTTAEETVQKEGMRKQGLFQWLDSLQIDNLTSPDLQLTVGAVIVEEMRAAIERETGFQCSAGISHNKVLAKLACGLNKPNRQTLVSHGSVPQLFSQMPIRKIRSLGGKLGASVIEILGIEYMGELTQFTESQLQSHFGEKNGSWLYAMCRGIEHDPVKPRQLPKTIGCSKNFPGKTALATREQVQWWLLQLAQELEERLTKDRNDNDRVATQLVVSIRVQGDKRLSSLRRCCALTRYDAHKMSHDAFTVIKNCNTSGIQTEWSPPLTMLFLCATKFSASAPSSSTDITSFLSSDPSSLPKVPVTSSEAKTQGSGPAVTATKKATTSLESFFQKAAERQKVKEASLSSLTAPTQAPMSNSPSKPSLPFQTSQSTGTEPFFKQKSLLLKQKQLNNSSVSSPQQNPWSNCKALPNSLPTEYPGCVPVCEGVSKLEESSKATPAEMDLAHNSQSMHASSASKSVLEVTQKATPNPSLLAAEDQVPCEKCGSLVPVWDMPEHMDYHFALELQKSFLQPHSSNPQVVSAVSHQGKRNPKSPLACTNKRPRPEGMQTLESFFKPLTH

[16] = molecular target: T5, DNA polymerase kappa (Homo sapiens, UniProt Q9UBT6); assay: Inhibition of human DNA polymerase kappa
T5 sequence (Q9UBT6 whole entry): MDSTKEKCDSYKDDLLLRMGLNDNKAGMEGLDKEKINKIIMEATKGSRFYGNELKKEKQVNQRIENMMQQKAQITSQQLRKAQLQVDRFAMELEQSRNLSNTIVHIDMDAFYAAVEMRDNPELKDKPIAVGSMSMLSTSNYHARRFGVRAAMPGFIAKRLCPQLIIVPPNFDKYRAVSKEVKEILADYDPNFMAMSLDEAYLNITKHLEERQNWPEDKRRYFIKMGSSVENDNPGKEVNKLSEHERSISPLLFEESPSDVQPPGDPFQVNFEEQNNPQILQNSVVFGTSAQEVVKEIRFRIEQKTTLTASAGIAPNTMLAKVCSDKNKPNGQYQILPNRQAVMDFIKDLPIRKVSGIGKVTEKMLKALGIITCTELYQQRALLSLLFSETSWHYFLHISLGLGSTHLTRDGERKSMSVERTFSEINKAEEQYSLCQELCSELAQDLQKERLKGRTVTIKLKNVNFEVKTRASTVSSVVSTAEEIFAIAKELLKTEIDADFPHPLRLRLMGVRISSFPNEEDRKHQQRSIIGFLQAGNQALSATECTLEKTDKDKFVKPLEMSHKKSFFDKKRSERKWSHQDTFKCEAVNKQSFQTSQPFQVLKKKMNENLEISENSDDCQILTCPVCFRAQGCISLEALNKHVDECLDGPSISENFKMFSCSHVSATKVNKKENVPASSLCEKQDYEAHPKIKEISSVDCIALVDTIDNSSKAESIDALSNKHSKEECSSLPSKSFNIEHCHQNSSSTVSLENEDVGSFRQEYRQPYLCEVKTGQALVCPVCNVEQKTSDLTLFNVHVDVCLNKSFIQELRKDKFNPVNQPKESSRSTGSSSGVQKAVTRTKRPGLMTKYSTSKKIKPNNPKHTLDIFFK

[17] = molecular target: T6, DNA topoisomerase 1 (Homo sapiens) (UniProt P11387); assay: Inhibition of human DNA topoisomerase 1 at 100 uM
T6 sequence (whole entry): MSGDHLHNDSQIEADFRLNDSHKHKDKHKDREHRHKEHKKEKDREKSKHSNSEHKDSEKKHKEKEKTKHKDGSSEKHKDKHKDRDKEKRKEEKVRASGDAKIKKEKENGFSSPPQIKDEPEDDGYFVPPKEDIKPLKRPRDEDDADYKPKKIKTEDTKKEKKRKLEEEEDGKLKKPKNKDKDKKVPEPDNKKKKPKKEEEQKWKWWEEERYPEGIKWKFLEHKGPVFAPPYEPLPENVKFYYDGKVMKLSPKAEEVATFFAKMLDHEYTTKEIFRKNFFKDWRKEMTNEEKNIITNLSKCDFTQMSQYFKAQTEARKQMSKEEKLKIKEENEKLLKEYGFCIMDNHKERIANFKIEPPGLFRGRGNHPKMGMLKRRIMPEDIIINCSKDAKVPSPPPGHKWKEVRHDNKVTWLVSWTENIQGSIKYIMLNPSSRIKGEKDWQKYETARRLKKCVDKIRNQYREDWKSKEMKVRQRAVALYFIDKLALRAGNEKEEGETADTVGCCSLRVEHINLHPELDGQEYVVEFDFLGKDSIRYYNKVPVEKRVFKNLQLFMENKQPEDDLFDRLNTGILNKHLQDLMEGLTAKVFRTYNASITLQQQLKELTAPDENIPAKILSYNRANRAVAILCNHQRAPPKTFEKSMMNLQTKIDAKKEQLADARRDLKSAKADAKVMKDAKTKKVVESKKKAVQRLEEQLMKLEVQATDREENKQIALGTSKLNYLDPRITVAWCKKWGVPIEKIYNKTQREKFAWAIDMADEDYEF

[18] = molecular target: DNA polymerase beta (Rattus norvegicus, UniProt P06766); assay: Inhibition of rat DNA polymerase beta
[19] = molecular target: Telomerase reverse transcriptase (Homo sapiens) (UniProt O14746); assay: Inhibition of human telomerase at 100 uM
Telomerase reverse transcriptase (Homo sapiens), sequence (O14746 whole entry): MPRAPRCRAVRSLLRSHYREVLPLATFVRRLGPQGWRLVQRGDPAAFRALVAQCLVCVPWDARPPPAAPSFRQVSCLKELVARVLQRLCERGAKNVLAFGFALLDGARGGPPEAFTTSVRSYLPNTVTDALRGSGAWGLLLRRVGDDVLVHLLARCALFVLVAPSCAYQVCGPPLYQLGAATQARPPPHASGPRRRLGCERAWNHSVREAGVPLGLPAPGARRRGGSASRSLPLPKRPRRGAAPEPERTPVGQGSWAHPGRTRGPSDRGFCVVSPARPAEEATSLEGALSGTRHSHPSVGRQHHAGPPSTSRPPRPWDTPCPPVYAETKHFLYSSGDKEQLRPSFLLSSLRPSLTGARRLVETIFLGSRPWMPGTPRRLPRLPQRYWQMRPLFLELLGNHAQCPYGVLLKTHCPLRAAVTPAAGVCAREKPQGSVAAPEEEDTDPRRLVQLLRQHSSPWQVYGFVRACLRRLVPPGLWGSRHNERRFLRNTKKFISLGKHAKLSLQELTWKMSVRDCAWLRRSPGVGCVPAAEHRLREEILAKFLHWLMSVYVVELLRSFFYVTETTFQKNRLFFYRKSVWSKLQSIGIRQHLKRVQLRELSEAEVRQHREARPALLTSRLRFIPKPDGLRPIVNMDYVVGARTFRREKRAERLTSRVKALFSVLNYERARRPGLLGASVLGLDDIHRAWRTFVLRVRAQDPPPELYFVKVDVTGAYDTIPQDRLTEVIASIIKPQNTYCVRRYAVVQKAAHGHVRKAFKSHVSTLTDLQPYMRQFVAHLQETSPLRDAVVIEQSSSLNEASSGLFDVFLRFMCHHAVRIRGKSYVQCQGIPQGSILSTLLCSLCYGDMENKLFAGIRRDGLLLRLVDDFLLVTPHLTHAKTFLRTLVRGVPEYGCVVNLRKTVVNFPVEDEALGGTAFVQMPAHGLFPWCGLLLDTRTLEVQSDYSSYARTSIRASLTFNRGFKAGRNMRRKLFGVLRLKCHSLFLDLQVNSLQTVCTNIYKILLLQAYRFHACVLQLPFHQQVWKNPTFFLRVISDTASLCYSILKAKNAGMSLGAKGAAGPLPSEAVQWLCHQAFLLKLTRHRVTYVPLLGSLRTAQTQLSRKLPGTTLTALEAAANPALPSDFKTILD

[20] = organism: Homo sapiens; assay: Inhibition of human DNA polymerase gamma at 100 uM
[21] = molecular target: Inosine-5'-monophosphate dehydrogenase 2 (Mus musculus) (UniProt P24547); assay: Inhibition of mouse IMP dehydrogenase 2 at 100 uM
Inosine-5'-monophosphate dehydrogenase 2 (Mus musculus), sequence (P24547 whole entry, looked up): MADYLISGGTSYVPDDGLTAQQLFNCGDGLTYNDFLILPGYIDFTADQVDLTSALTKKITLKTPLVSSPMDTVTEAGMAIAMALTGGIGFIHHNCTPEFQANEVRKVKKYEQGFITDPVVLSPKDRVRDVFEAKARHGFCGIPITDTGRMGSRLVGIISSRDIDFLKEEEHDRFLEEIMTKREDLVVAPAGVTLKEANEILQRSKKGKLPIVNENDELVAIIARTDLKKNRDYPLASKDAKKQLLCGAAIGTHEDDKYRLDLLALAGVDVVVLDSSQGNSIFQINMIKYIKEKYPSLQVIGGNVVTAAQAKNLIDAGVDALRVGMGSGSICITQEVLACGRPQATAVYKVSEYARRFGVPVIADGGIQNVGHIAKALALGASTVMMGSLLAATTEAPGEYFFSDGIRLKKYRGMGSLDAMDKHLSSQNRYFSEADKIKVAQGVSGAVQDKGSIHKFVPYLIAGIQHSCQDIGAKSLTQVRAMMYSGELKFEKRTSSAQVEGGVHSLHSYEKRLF

[22] = organism: Bos taurus; assay: Inhibition of calf terminal deoxynucleotidyl transferase at 100 uM
[23] = organism: Bos taurus; assay: Inhibition of calf DNA polymerase alpha at 100 uM
[24] = organism: Homo sapiens; assay: Inhibition of human DNA topoisomerase 2 at 100 uM

| SMILES | Activity [1] | Activity [2] | Activity [3] | Activity [4] | Activity [5] | Activity [6] | Activity [7] | Activity [8] | Activity [9] | Activity [10] | Activity [11] | Activity [12] | Activity [13] | Activity [14] | Activity [15] | IC50 [16] | Activity [17] | IC50 [18] | Activity [19] | Activity [20] | other results |
| --- | --- | --- | --- | --- | --- | --- | --- | --- | --- | --- | --- | --- | --- | --- | --- | --- | --- | --- | --- | --- | --- |
| COc1cc(O)c2c(=O)oc3c(c2c1)C(C)CC3=O (stereo not drawn) | inactive | Active | inactive | inactive | inactive | inactive | inactive | inactive | Active | inactive | inactive | inactive | inactive | inactive | Active | 59.8 µM | inactive | 11.9 µM | inactive | inactive | Activity [21]: inactive; Activity [22]: Active; Activity [23]: inactive; Activity [24]: inactive |
| COc1cc(O)c2c(c1)C1(OC2=O)C(C)=CC(=O)C1O (stereo not drawn) [TALAROFLAVONE] | inactive | Active | inactive | inactive | inactive | inactive | inactive | inactive | Active | inactive | inactive | inactive | inactive | inactive | Active | 86.5 µM | inactive | 16.3 µM | inactive | inactive | Activity [21]: inactive; Activity [22]: Active; Activity [23]: inactive; Activity [24]: inactive |
